# From US9969686B2, “Synthesis of diindolylmethanes and indolo[3,2-b]carbazoles, compounds formed thereby, and pharmaceutical compositions containing them” (Wisconsin Alumni Research Foundation, priority 2014, dated 2018)
# Where two headings read alike, the source gives them in different places.
# Tests used:
# [1] = tested on: GLP-1 secretion; test: GLP-1 secretion assay (Table 5; cell line not stated); format: cell-based
# Protocol: The GLP-1 secretion assay identifies compounds that stimulate secretion of glucagonlikepeptide one (GLP-1) in mouse and human cell lines derived from gastrointestinal tract tissue. GLP-1 secretion is measured using an ELISA designed to detect the appropriate forms of GLP-1 secreted from these cells. If active in the cell-based GLP-1 assay, molecules can be further tested for selectivity in assays that measure activation of G-protein-coupled receptors (GPCRs) known to stimulate GLP-1 secretion. See, for example, “Glucagon-Like Peptide 1-Based Therapies for Type 2 Diabetes: A Focus on Exenatide,” Kathleen Dungan and John B. Buse; Clinical Diabetes 29 (1), (Winter 2011); and “Glucagon-Like Peptide 1 Secretion by the L-Cell,” Gareth E. Kim and Patricia L. Brubaker; Diabetes: 55 (supplement 2), (December, 2006).
# The GLP-1 secretion, diabetes phenotypic testing identifies compounds that stimulate secretion of glucagon-like peptide one (GLP-1) in mouse and human cell lines derived from gastrointestinal tract tissue. GLP-1 secretion is measured using an Eli Lilly & Company (Indianapolis, Ind., USA) proprietary ELISA assay that was specifically designed to detect the appropriate forms of GLP-1 secreted from these cells. (Eli Lilly operates a program known Open Innovation Drug Discovery that performs such testing. See https://openinnovation.lilly.com/dd/.) If active in the cell-based GLP-1 assay, molecules are further tested for selectivity in assays that measure activation of GPCRs known to stimulate GLP-1 secretion. See Glucagon-Like Peptide 1-Based Therapies for Type 2 Diabetes: A Focus on Exenatide; Kathleen Dungan and John B. Buse; Clinical Diabetes: 29 (1), (Winter 2011); and Glucagon-Like Peptide 1 Secretion by the L-Cell; Gareth E. Kim and Patricia L. Brubaker; Diabetes: 55 (supplement 2), (December, 2006).
# [2] = molecular target: AhR (Homo sapiens (Human), UniProt P35869); test: ethoxyresorufin-O-deethylase (EROD) assay, AhR activation (CYP1A1 induction); format: cell-based; conditions: for increase of signal over DMSO treatment: at 10 nM concentration, data not shown
# Protocol: The human Hep G2 cell line from the Small Molecule Screening and Synthesis Facility (UWCCC, Madison, Wis.) and was maintained in DMEM medium supplemented with 10% FBS. Cells were incubated at 37° C. in a humidified atmosphere supplemented with 5% CO2.
# Preparation of cells: Cells were cleaved from T75 flasks with 0.05% trypsin. The cells were then collected by spinning at 1 g for 4 min. Excess media containing trypsin was removed from the pellet, which was then re-suspended in growth media. The cells were then counted using a hemocytometer. Cells were plated in sterile 96-well clear bottom black culture plates at a density of 20,000 cells per well in 0.1 mL of media. The cells were then incubated for 24 h at 37° C. in a humidified atmosphere supplemented with 5% CO2.
# The ethoxyresorufin-O-deethylase (EROD) assay was performed on cell cultures of human Hep G2 cells. Briefly, 24 h after plating, cells in 96-well plates were treated with AhR agonists and allowed to incubate for 24 h. Each well was then rinsed with 200 uL of PBS buffer twice. To each well was then added 100 uL of 150 nM solution of 7-ethoxyresurufin and allowed to incubate for 2 h. Fluorescence measurements were obtained with a Safire II micro plate reader with excitation at 520 nm with a 25 nm bandwidth and emission at 595 nm with a 20 nm bandwidth.
# The bioactivity of malassezin analogs was then investigated. The well-documented ethoxyresorufin-O-deethylase (EROD) assay was used to determine the EC50 values of the compounds towards AhR activation in HepG2 cells. Donato, M. T.; Gomezlechon, M. J.; Castell, J. V. Anal. Biochem. 1993, 213, 29; van Tonder, J. J., University of Pretoria Z. A., Thesis, 2011. This assay measures the induction of cytochrome P450-1A1 (CYP1A1), which is a major outcome of AhR activation. Whyte, J. J.; Jung, R. E.; Schmitt, C. J.; Tillitt, D. E. Crit. Rev. Toxicol. 2000, 30, 347. CYP1A1 selectively converts 7-ethoxyresorufin to the fluorescent product resorufin.
# [3] = tested on: secreted PCSK9 in HepG2 cells; test: PCSK9 inhibition assay (AlphaLISA, secreted PCSK9); format: cell-based; conditions: Homo sapiens, Table 5
# Text: PCSK9 expression is actively regulated at transcription levels. Statins are known to stimulate PCSK9 transcription which in turn curbs the efficacy of statins in LDL lowering in humans. […] The PCSK9 SI phenotypic assay is designed to identify compounds that inhibit synthesis of PCSK9 in human hepatoma cell lines (HepG2). See, for example, Horton, J. D., Cohen, J. C., and Hobbs, H. H., “PCSK9: a convertase that coordinates LDL catabolism,” J. Lipid Res. 50 Suppl, S172-177, (2009); Crunkhorn, S. “Trial watch: PCSK9 antibody reduces LDL cholesterol,” Nat Rev Drug Discov 11, 11, (2012); Vogel, R. A., “PCSK9 inhibition: the next statin,” J Am Coll Cardiol 59, 2354-2355, (2012); Li, H., Dong, B., Park, S. W., Lee, H. S., Chen, W., and Liu, J., “Hepatocyte nuclear factor 1alpha plays a critical role in PCSK9 gene transcription and regulation by the natural hypocholesterolemic compound berberine,” J Biol Chem 284, 28885-28895, (2009); and Cao, A., Wu, M., Li, H., and Liu, J., “Janus Kinase activation by cytokine oncostatin M decreases PCSK9 expression in liver cells,” J Lipid Res 52, 518-530, (2011).
# Inhibition of secreted PCSK9 was measured in human hepatocellular carcinoma (HepG2) cells using an “AlphaLISA”®-brand assay. Given that this assay is run in an inhibition mode, the viability of cells was also assessed to rule out compounds whose PCSK9 inhibition resulted from deleterious effects on cell health. Freshly cultured HepG2 cells were harvested from poly-d-lysine-coated T225 cell culture flasks and plated in biocoat poly-d-lysine coated 384 black with clear bottom microtiter plates (BD BioCoat #356663; Becton, Dickinson and Company, Franklin Lakes, N.J., USA) at 20,000 cells/well in 60 ul of growth media (MEM+10% heat inactivated FBS+1% NEAA+1% sodium pyruvate+1% GlutaMAX). Cell plates were incubated overnight at 37° C. and 5% CO2 prior to compound treatment.
# Compounds were serially diluted 3-fold in 100% DMSO to achieve a starting final assay plate concentration of 50 uM following a 20-fold dilution in assay media (MEM+5% heat inactivated FBS+1% NEAA+1% sodium pyruvate+1% GlutaMAX) and a 10-fold dilution into the cell plates. While the compounds were diluting, the cell plates were washed twice with 75 ul of assay media and refilled with 45 ul of assay media. The cell plates were incubated for 48 hrs at 37° C. and 5% CO2 prior to running the “AlphaLISA”®-brand assay. The “AlphaLISA”® bead mix was assembled in water and left to incubate 1 hr in the dark prior to use (1× “AlphaLISA”® buffer, 5 mg/ml mAb-PCSK9-A4 conjugated acceptor beads, 3.4 uM bioti-mAb-anti-PCSK9-B9, 5 mg/ml streptavidin-coated donor beads). […] In the dark, 5 ul of the bead mix was added to the ProxiPlates, and then the plates were left to incubate at ambient temperature in the dark overnight before being read on an Envision (excitation 680 nm and emission 615 nm). […] The plates were removed from the incubator, sealed with black tape, and read for propidium iodide stained nuclei using an Acumen-brand cell imaging system (TTP Labtech Ltd., Melbourn, Hertfordshire United Kingdom). Percent inhibitions at all concentrations tested were calculated relative to 0.5% DMSO (min effect), and the effect of 50 uM of a fully efficacious PCSK9 inhibitor for the PCSK9 inhibition assay (max effect), or 50 uM Brefeldin A for the viability assay (max effect). IC50 values were calculated using a 4 parameter logistic curve fitting equation.
# [4] = in human; cited from earlier work
# [5] = tested on: IL-17 secretion from human peripheral blood mononuclear cells (PBMCs); test: IL-17 phenotypic assay; format: cell-based; conditions: PBMC, Table 5, read-out: IL17, IC50
# Text: The IL-17 phenotypic assay seeks to identify inhibitors of IL-17 secretion from human peripheral blood mononuclear cells (PBMCs) following stimulation of memory T cells by IL-23, anti-CD3, and anti-CD28. Compounds of interest will inhibit IL-17. See W. Ouyang, J. K. Kolls, V. Zheng, “The biological functions of T helper 17 cell effector cytokines in inflammation,” Immunity, 28, 454-467 (2008); I. I. Ivanov, L. Zhou, D. R. Littman, “Transcriptional regulation of Th17 cell differentiation,” Semin Immunol, 19, 409-417 (2007); N. Mane I, D. Unutmaz, D. R. Littman, “The differentiation of human T(H)-17 cells requires transforming growth factor-beta and induction of the nuclear receptor RORgammat,” Nat Immunol, 9, 641-649 (2008); and M. Ciofani, A. Madar, C. Galan, M. Sellars, K. Mace, F. Pauli, A. Agarwal, W. Huang, C. N. Parkurst, M. Muratet, K. M. Newberry, S. Meadows, A. Greenfield, V. Vang, P. Jain, F. K. Kirigin, C. Birchmeier, E. F. Wagner, K. M. Murphy, R. M. Myers, R. Bonneau, D. R. Littman, “A validated regulatory network for Th17 cell specification.” Cell, 151, 289-303 (2012).
# [6] = tested on: IL5; test: IL5 assay (Table 5); format: cell-based
# [7] = EROD assay, HepG2 cells, 24 h treatment, read-out: EC50 (AhR Activity of Diindolylmethanes)
# Chain of AhR (P35869 11-848): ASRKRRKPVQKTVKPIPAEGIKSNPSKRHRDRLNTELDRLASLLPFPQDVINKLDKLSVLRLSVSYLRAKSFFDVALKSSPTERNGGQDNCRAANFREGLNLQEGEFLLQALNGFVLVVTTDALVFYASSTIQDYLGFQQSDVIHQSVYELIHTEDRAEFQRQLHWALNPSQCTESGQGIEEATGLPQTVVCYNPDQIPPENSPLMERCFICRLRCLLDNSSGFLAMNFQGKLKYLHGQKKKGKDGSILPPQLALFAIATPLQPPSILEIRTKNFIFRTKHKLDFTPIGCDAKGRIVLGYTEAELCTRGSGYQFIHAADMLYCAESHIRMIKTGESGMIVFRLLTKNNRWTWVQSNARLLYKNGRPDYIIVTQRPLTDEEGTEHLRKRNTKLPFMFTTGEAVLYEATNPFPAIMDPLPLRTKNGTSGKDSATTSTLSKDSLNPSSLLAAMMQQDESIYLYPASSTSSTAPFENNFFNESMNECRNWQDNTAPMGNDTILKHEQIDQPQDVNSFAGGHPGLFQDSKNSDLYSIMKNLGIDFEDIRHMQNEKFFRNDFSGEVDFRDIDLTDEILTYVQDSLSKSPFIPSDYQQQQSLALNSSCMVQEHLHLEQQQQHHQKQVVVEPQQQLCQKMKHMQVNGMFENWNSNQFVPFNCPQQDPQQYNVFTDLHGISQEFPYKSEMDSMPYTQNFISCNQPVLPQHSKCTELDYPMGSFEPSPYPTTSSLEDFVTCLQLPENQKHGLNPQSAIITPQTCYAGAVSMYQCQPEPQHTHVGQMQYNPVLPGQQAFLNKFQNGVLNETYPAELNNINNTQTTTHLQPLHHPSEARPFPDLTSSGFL
EC50 [1],"EC50 [2, 7]",SMILES,also measured
6800 nM,,Brc1ccc2[nH]cc(Cc3cc4ccccc4[nH]3)c2c1 [Compound 2351377823],
2600 nM,,Cc1ccc(S(=O)(=O)n2c(Cc3c[nH]c4cccc(C)c34)c(C)c3ccccc32)cc1,
7300 nM,,Cc1ccc(S(=O)(=O)n2c(COC(C)C)c(C)c3ccccc32)cc1,
,55 ± 30 nM,Cn1cc(Cc2[nH]c3ccccc3c2C=O)c2ccccc21 [Compound 11d],"EC50 value relative to that of malassezin ([2]; EROD assay, HepG2 cells): about five; increase of signal over DMSO treatment [2]: 6 fold"
,270 ± 100 nM,"O=Cc1c(Cc2c[nH]c3ccccc23)[nH]c2ccccc12 [Compound 6, 2-((1H-indol-3-yl)methyl)-1H-indole-3-carbaldehyde, reference compound]",
7200 nM,,Clc1cccc2c(Cc3cc4ccccc4[nH]3)c[nH]c12 [Compound 2351377820],IC50 [3]: 2800 nM
,,"Clc1cc2c(cc1Cl)Oc1cc(Cl)c(Cl)cc1O2 [dioxin, 2,3,7,8-tetrachlorodibenzo-p-dioxin]",half-life (metabolic stability) [4]: 7-10 years
,215 ± 460 nM,"c1ccc2[nH]c(Cc3c[nH]c4ccccc34)cc2c1 [6′, 3-((1H-indol-2-yl)methyl)-1H-indole]",
,,Cc1ccc(S(=O)(=O)n2c(Cc3[nH]c4ccccc4c3CC#N)c(C)c3ccccc32)cc1,IC50 [5]: 3100 nM; IC50 [6]: > 30000 nM
,,Cc1ccc(S(=O)(=O)n2c(Cc3cn(C)c4ccccc34)c(C(C)C)c3ccccc32)cc1,IC50 [3]: 1100 nM
,320 ± 100 nM,O=Cc1c(Cc2c[nH]c3c(Cl)cccc23)[nH]c2ccccc12 [Compound 11b],
14800 nM,,Clc1ccc2[nH]cc(Cc3cc4ccccc4[nH]3)c2c1 [Compound 2351377819],IC50 [3]: 10000 nM
,,Cn1cc(Cc2cc3ccccc3[nH]2)c2ccccc21 [Compound 2351377824],"EC50 ([2]; Table 5, read-out: AhR, EC50): 90 nM; IC50 [3]: 17900 nM"
2900 nM,,COc1ccc(Cc2c(C)c3ccccc3n2S(=O)(=O)c2ccc(C)cc2)c(OC)c1,IC50 [3]: 1100 nM
,86 ± 40 nM,Cn1cc(Cc2cc3ccccc3[nH]2)c2ccccc21 [Compound 10d],
,93 ± 150 nM,O=Cc1c(Cc2c[nH]c3ccc(Cl)cc23)[nH]c2ccccc12 [Compound 11a],increase of signal over DMSO treatment [2]: 5 fold
,230 ± 100 nM,COc1ccc2[nH]cc(Cc3[nH]c4ccccc4c3C=O)c2c1 [Compound 11c],
,94 ± 270 nM,COc1ccc2[nH]cc(Cc3cc4ccccc4[nH]3)c2c1 [Compound 10c],
